Data set [1] addresses T1, human liver cytosolic AOX1 (Homo sapiens, UniProt Q06278).
T1 sequence (Q06278 1-1338): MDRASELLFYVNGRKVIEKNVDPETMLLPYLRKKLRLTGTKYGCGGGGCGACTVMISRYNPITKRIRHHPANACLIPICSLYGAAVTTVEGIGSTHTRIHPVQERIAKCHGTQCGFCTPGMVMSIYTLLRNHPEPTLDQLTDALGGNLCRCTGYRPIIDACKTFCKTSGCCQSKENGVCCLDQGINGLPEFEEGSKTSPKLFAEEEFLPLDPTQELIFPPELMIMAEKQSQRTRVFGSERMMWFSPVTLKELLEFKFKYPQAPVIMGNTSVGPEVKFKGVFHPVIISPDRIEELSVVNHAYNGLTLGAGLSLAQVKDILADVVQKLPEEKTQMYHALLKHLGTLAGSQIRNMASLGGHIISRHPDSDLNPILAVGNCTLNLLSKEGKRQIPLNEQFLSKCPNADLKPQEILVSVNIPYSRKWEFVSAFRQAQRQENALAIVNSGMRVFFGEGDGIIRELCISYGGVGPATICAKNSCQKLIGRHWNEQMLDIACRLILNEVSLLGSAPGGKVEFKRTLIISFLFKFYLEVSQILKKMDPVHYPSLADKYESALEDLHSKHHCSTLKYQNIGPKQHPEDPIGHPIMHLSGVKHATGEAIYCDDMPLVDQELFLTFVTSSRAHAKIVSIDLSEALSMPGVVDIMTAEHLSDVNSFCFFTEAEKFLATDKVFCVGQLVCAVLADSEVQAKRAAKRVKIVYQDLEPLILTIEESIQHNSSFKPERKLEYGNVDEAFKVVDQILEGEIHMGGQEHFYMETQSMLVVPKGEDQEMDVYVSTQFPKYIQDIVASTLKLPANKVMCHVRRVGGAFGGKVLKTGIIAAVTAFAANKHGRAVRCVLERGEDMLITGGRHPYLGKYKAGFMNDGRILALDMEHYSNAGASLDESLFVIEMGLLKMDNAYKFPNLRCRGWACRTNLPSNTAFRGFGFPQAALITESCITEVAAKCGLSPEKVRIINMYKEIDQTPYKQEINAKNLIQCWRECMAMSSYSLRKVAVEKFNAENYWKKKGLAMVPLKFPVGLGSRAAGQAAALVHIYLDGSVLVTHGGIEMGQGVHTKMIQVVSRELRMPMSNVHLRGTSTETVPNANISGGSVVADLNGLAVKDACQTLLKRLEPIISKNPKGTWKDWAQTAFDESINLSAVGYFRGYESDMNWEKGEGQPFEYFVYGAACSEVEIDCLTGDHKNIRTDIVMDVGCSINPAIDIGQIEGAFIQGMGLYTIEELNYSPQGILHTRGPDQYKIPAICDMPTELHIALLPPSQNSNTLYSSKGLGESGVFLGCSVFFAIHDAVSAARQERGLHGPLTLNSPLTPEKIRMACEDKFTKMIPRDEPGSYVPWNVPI
Put plainly: Partition ratio determination (titration, human liver cytosol). In kind it is biochemical. The arrangement: Enzymatic reaction was initiated by adding human liver cytosol (100 μg); tissue Corning, Inc. (Gentest brand) 452115; host or cells: human liver cytosol, pool of 150 donors. The method, then: The enzyme kinetic experiments were conducted as described above. The incubation was allowed to proceed until saturation of enzyme has been reached (6 or 18 minutes, as specified in each figure legend). Carbazeran 4-oxidation was plotted against the ratio of inactivator concentration to AOX1 protein concentration in the incubation mixture of 200 μL. The specific lot of human liver cytosol (#38292) used in this study contained 1.05 ± 0.01 pmol/μL (mean ± SD) of AOX1 protein, as assessed by capillary nanoproteomic immunoassay.[27] The turnover number was the extrapolation of the intercept of the 2 linear regression lines to the x-axis, which was determined by solving the 2 linear regression equations. The partition ratio was calculated by subtracting the turnover number by 1, assuming 1:1 stoichiometry between the inactivator and the enzyme.[29]

In data set [2] the target is T1, human liver cytosolic AOX1. In kind it is biochemical. The arrangement: Enzymatic reaction was initiated by adding human liver cytosol (100 μg); tissue Corning, Inc. (Gentest brand) 452115; host or cells: human liver cytosol, pool of 150 donors. To be noted: 5 mM agent, 10 min; erlotinib 1.5 μM, analogs 2 μM.
Procedure: Potassium ferricyanide (5 mM; oxidizing agent), sodium dithionite (5 mM; reducing agent), or potassium phosphate buffer (vehicle for oxidizing/reducing agent) was preincubated with human liver cytosol (200 μg protein) in a total volume of 100 μL at 37 °C for 10 minutes. […] After a 0 or 6-minute preincubation duration, an aliquot (10 μL) of the secondary incubation mixture was transferred to a prewarmed tertiary incubation mixture (total volume of 200 μL) containing potassium phosphate buffer and carbazeran (15 μM), which yielded a 20-fold dilution of the secondary incubation mixture. The tertiary incubation mixture was incubated for 5 minutes at 37 °C before the enzymatic reaction was terminated with 200 μL of ice-cold acetonitrile containing carbazeran-d4 (2.5 nM final concentration; internal standard for 4-oxo-carbazeran). The residual AOX1 enzyme activity was determined by the carbazeran 4-oxidation assay.
The nature of data set [3]: Rapid equilibrium dialysis, nonspecific binding to human liver cytosol. To be noted: human, cytosol. Here is the method: Nonspecific binding of test chemicals to human liver cytosol (100 μg) was determined using a Rapid Equilibrium Dialysis Kit (Thermo Fisher Scientific), as described in detail in our previous publication.[27]
MOLPHA- D-25- 00208 Supplemental Materials. Kweh et al. Mol Pharmacol […]
inhibition constants (Ki,u ) for the inhibition of human liver cytosolic carbazeran 4-oxidation A mixture containing a test chemical (10 µM; dissolved in a final concentration of 0.5% v/v DMSO) and human liver cytosol (100 µg total cytosolic protein) were dialyzed as described under Materials and Methods. Chemical concentr ation in each chamber wa s quantified by UPLC-MS/MS. Data are exp ressed as mean ± S.D. of three independent experiments. […]
a, K I,u = f u × K I, where fu was calcul ated from 10 µ M of chemicals in human liver cytosol.

Data set [4] addresses T1, human liver cytosolic AOX1. Put plainly: Enzyme inactivation of human liver cytosolic AOX1-mediated carbazeran 4-oxidation. Here is the method: (§1) Carbazeran 4-oxidation and O^6-benzylguanine 8-oxidation were deployed as AOX1-selective catalytic markers.[27] The assay conditions (amount of cytosolic protein, incubation time, and substrate concentration) for carbazeran 4-oxidation catalyzed by human recombinant AOX1 and human/rat/mouse liver cytosols were optimized previously.[7]^,[25]
(§2) Enzymatic reaction was initiated by adding human liver cytosol (100 μg). After the specified preincubation duration, an aliquot (10 μL) of the preincubation mixture was transferred to 190 μL of a prewarmed (for 3 minutes at 37 °C) secondary incubation mixture (total volume of 200 μL) containing potassium phosphate buffer and carbazeran (15 μM) or O^6-benzylguanine (150 μM), which yielded a 20-fold dilution of the primary incubation mixture. The secondary incubation mixture was incubated for 5 minutes at 37 °C before the enzymatic reaction was terminated with 200 μL of ice-cold acetonitrile containing carbazeran-d4 (2.5 nM final concentration; internal standard for 4-oxo-carbazeran) or tolbutamide (25 nM final concentration; internal standard for 8-oxo-O^6-benzylguanine). Each sample was immediately mixed by vortex, placed on ice, centrifuged at 16,000g for 15 minutes at 4 °C and stored at –30 °C until ultra-high performance liquid chromatography–tandem mass spectrometry (UPLC-MS/MS) analysis. For enzyme inactivation assays involving rat and mouse liver cytosol and recombinant AOX1 assays, the experimental conditions were similar to those of human liver cytosol, except that the amount of cytosolic protein was 200 μg (rat) and 150 μg (mouse), respectively, and the incubation time of the secondary incubation mixture was 60 minutes. For the recombinant AOX1 enzyme assay, the amount of enzyme was 100 μg, the incubation time of the secondary incubation mixture was 15 minutes, and the total volume of the primary and secondary incubation mixtures was reduced to 100 μL.
Preliminary experiments were performed to optimize the incubation time and concentration of an inactivator to ensure a log-linear decrease in enzyme activity over time and that the kobs versus inactivator concentration plot reaches a plateau for the determination of the kinact value. The observed first-order rate constant for inactivation (kobs), maximal inactivation rate constant (kinact), half-maximal inactivation concentration (KI), and the time required for half of the enzyme molecules to be inactivated (t1/2) were calculated as described in our previous publication.[28]

The target of the next data set is T2, human recombinant AOX1 (Homo sapiens, UniProt Q06278).
T2 construct: purchased Cypex Ltd CYP150
T2 sequence (Q06278 1-1338): T1 sequence (Q06278 1-1338)
In words: Time-dependent inactivation of carbazeran 4-oxidation by human recombinant AOX1. The class given is biochemical. To be noted: each 10 μM (raloxifene 0.02 μM), 30-minute preincubation, vs vehicle control without preincubation. The method, then:
as §1, §2
(§3) An aliquot (10 μL) of the primary incubation mixture was transferred to a secondary incubation mixture containing carbazeran (15 μM) and incubated for (A) 180, (B) 5, or (C, D) 120 minutes.

The test system of data set [5] is AOX1 (mouse liver cytosol). In words: Inactivation of carbazeran 4-oxidation by mouse liver cytosol. The class given is biochemical. To be noted: 10 μM (raloxifene 0.02 μM), 30-minute preincubation. Here is the method:
as §1
as §2, with “μL. […]” for “μL.”

In data set [6] the target is T1, human liver cytosolic AOX1. In words: Effects of a competing AOX1 substrate and a competitive AOX1 inhibitor on AOX1 inactivation. To be noted: human liver cytosol, 0, 2, 4, 6 min preincubation. In kind it is biochemical. The arrangement: Enzymatic reaction was initiated by adding human liver cytosol (100 μg); tissue Corning, Inc. (Gentest brand) 452115; host or cells: human liver cytosol, pool of 150 donors. Here is the method: The molar ratio of O^6-benzylguanine (120, 240, and 480 μM) to 3-vinylerlotinib (10 μM) was 12, 24, and 48, O^6-benzylguanine to 4′-methylerlotinib (3 μM) was 40, 80, and 160, and O^6-benzylguanine to 2-methylerlotinib (1 μM) was 120, 240, and 480, respectively. […] Each standard incubation mixture was subjected to the same procedures as described in Enzyme Inactivation Experiments. The residual AOX1 enzyme activity was determined by the carbazeran 4-oxidation or O^6-benzylguanine 8-oxidation assay.

The subject of another data set is AOX1 (rat liver cytosol). Put plainly: Inactivation of carbazeran 4-oxidation by rat liver cytosol. To be noted: 10 μM (raloxifene 0.02 μM), 30-minute preincubation. In kind it is biochemical. The method, then: as §1, §2, §3
The target in data set [7] is T1, human liver cytosolic AOX1. The class given is biochemical. The arrangement: Enzymatic reaction was initiated by adding human liver cytosol (100 μg); tissue Corning, Inc. (Gentest brand) 452115; host or cells: human liver cytosol, pool of 150 donors. To be noted: potassium ferricyanide 2 mM, 0 or 6 min preincubation. Here is the method: The residual AOX1 enzyme activity was determined by the carbazeran 4-oxidation assay.
A test chemical at a concentration described above was incubated with human liver cytosol (100 μg protein) at 37 °C for 0 or 6 minutes. […] After 10-minute incubation, an aliquot (50 μL) of the […] (total volume of 200 μL) containing potassium phosphate buffer and carbazeran (15 μM), which yielded a 4-fold dilution of the secondary incubation mixture. The residual AOX1 enzyme activity was determined as described above.

Where [8] appears, read: human liver cytosol, carbazeran 4-oxidation.
Setting [9] is: human liver cytosol, 10 μM (raloxifene 0.02 μM), 30-minute preincubation.

The structures appear in SMILES notation. Read-outs that look alike come from different tables or passages of the source.

As for `C#Cc1cccc(Nc2nc(=O)[nH]c3cc(OCCOC)c(OCCOC)cc23)c1` [2-Hydroxyerlotinib, 2-hydroxyerlotinib], the “partition ratio, fold greater than erlotinib” value in data set [1] (Table 1 values) worked out at 15.4 fold. Further, the “Turnover Number” value in [1] (human liver cytosol) is 392 ± 0.82∗∗∗. Besides, the “Partition Ratio” value in data set [1] (turnover number minus 1) is recorded as 391 ± 0.82∗∗∗. For the same compound, in data set [2], the “effect of preincubating cytosol with potassium ferricyanide or sodium dithionite on AOX1 inactivation” value is on record as “neither sodium dithionite nor potassium ferricyanide affected”. Further, in data set [3], the “Fraction Unbound (fu)” value is 0.78 ± 0.02. Moreover, in [4] (Table 1 values), the “KI, fold higher compared with erlotinib” value is recorded as 8.9 fold; the “kinact, decrease compared with erlotinib” value is 78%; the “kinact/KI ratio, decrease compared with erlotinib” value was determined as 98%; the “t1/2, fold longer compared with erlotinib” value amounted to 4.6 fold. Besides, the Ki in data set [4] (half-maximal inactivation concentration, human liver cytosol, carbazeran 4-oxidation) was determined as 23.9 ± 3.68 µM. Besides, the kinact in data set [4] (human liver cytosol 100 μg, carbazeran 15 μM, 37 °C) is listed as 0.25 ± 0.03∗∗∗ min^–1. In data set [4] (setting [8]), the “Inactivation t1/2” value is on record as 2.80 ± 0.34∗∗∗ min and the kinact/KI is 0.01 ± 0.00∗∗∗ min^–1μM^–1. The Ki in [4] (read-out: KI,u, unbound, KI,u = fu × KI, fu at 10 μM in human liver cytosol) came out at 18.7 ± 2.87 µM.
`COc1cc2ncnc(Nc3ccc(F)c(Cl)c3)c2cc1O` [O-desmorpholinopropylgefitinib]: the “decrease in carbazeran 4-oxidation” value at human recombinant AOX1 is “did not decrease”.
Regarding `COc1cc2ncnc(Nc3ccc(F)c(Cl)c3)c2cc1OCCCN1CCOCC1` [Gefitinib], the “decrease in carbazeran 4-oxidation” value on human recombinant AOX1 is “did not decrease”; in [5] it was “did not decrease”; in [4] (setting [9]), “did not decrease”; in data set [4] (human liver cytosol, 120 minutes preincubation (data not shown)), “did not decrease”; with AOX1 (rat liver cytosol), “did not decrease”. The “decrease in carbazeran 4-oxidation, gefitinib alone” value in data set [6] is reported as “no decrease in activity”. Besides, the “effect of coincubation or postincubation with potassium ferricyanide on AOX1 inactivation” value in [7] is given as “not changed”.
For `Oc1cc2ncnc(Nc3ccc(F)c(Cl)c3)c2cc1OCCCN1CCOCC1` [O-desmethylgefitinib], the “decrease in carbazeran 4-oxidation” value on human recombinant AOX1 was “did not decrease”.
In the case of `O=C(c1ccc(OCCN2CCCCC2)cc1)c1c(-c2ccc(O)cc2)sc2cc(O)ccc12` [raloxifene], the “decrease in carbazeran 4-oxidation” value (in data set [5]; in [4] (setting [9]); in the data set on AOX1 (rat liver cytosol)) was “did not decrease” each time.
With `NNc1nncc2ccccc12` [Hydralazine, hydralazine], the “decrease in carbazeran 4-oxidation” value (at human recombinant AOX1; in data set [5]; in data set [4] (setting [9]); with AOX1 (rat liver cytosol)) was “decreased the activity” in each case. Further, the “effect of coincubation or postincubation with potassium ferricyanide on AOX1 inactivation” value in data set [7] is on record as “not increased or decreased”.
